# Results taken from PubChem BioAssay AID652060 (Broad Institute, 2013).
# Active and inactive are the calls of the source. How the calls were made is not given here.
# Test system: not listed separately
# Test: nonspecific luciferase activators in D54 LucT cells, dose response, counter-screen for N-linked glycosylation inhibitor project, cell-based, luminescence, dry powder (AID 652060)
# Settings: D54 LucT luciferase counterscreen, luminescence, 24 h; at 19.5 µM (top of the series)
row,Compound,luciferase activity increase
1,C/C(=N\NC(=O)c1c([N+](=O)[O-])c(C)nn1C)c1ccc(NC(=O)C2CCCC2)cc1,0% (inactive)
2,CC(=O)N[C@H]1[C@@H](O[C@@H]2OC(C[C@@H](O)C3O[C@@H](n4ccc(=O)[nH]c4=O)[C@H](O)[C@@H]3O)[C@H](O)[C@H](O)[C@H]2NC(=O)/C=C/CCCCCCCCCCC(C)C)O[C@H](CO)[C@@H](O)[C@@H]1O (stereo partly specified),-50% (inactive)
3,Cc1cnc(NC(=O)c2cc(S(=O)(=O)N(C)C)ccc2N2CCCC2)s1,0% (inactive)
4,CCN(CC)CCOc1ccc2c(c1)C(=NNC(=O)c1ccccn1)c1cc(OCCN(CC)CC)ccc1-2,-33.3% (inactive)
5,CCN(CC)CCC(=O)Nc1cccc2c1C(=O)c1ccccc1C2=O,-33.3% (inactive)
6,CCCOC(=O)c1[nH]c2c(c1C)C(=O)CC(c1cccs1)C2 (stereo unspecified),50% (inactive)
7,COc1cc(C(=O)NCCOc2cc(C)cc(C)c2)cc(OC)c1OC,33.3% (inactive)
8,Cc1cc(=O)[nH]c(N/N=C/c2cc(C)n(CC(F)(F)F)c2C)n1,0% (inactive)
9,COc1ccc(NC(=O)C(=O)c2cn(CC(=O)N3CCCC3)c3ccccc23)cc1,-33.3% (inactive)
10,CCCCOc1ccccc1C1CC(=O)NC2=C1C(=O)CCC2 (stereo unspecified),0% (inactive)
11,Cc1cc(C)cc(C(=O)N2CC(=O)Nc3ccccc32)c1,33.3% (inactive)
12,COc1ccccc1OCC(=O)NNC(=O)c1ccoc1C,33.3% (inactive)
13,Cc1cc(C)nc(/N=C(\N)Nc2ccc(OCc3ccccc3)cc2)n1,-33.3% (inactive)
14,CCC1=Nc2cc(C(=O)NCCCOC)ccc2Sc2ccccc21,-33.3% (inactive)
15,CCOc1ccc(NC(=O)c2cc(OC)nc3ccccc23)cc1,0% (inactive)
16,O=C1CCN(Cc2ccccc2)c2cc3ccccc3cc21,0% (inactive)
17,Brc1ccc(CSc2nnc(-c3ccccc3)o2)cc1,0% (inactive)
18,CCOC(=O)COc1cccc2c(=O)n(CC(=O)NCc3ccccc3)ccc12,0% (inactive)

row,Compound,luciferase activity increase
1,COc1ccc(CSc2nnc(-c3ccccc3)o2)cc1,50% (inactive)
2,Cc1ccc(C(=O)c2cc([N+](=O)[O-])ccc2N2CCOCC2)cc1C,66.7% (inactive)
3,O=C(Cc1ccccc1)c1nnc(-c2ccccc2)o1,33.3% (inactive)
4,Cc1[nH][nH]c(=O)c1C(c1ccc(-c2ccc(Cl)c(Cl)c2)o1)c1c(C)[nH][nH]c1=O,0% (inactive)
5,Cc1ccc(Oc2ccc(S(=O)(=O)N3CCOCC3)cc2C(N)=O)c(-n2nc3ccccc3n2)c1,33.3% (inactive)
6,COc1cccc(N2CCN(C(=O)c3ccc(CS(=O)c4ccc(C)cc4)o3)CC2)c1 (stereo unspecified),0% (inactive)
7,COc1cc(Nc2c3c(nc4ccccc24)CCCC3)cc(OC)c1OC,0% (inactive)
8,CC(=O)N1CCC(=O)c2cc3ccccc3cc21,33.3% (inactive)
9,CC(=O)c1cccc(NC(=O)CSc2ncc(C(=O)Nc3ccccc3)c(=O)n2C)c1,33.3% (inactive)
10,Cc1cc(NC(=O)CSc2nc(-c3ccco3)cc(C(F)(F)F)n2)no1,0% (inactive)
11,CCN(CC)CCCNc1nc2cc(OC)c(OC)cc2c2nc(-c3ccccc3)nn12,-33.3% (inactive)
12,CCOc1ccc(S(=O)(=O)NCc2ccccn2)cc1NC(=O)c1ccccc1F,0% (inactive)
13,COc1ccc2c(COC(=O)c3cccc(S(=O)(=O)NCC(C)C)c3)cc(=O)oc2c1,66.7% (inactive)
14,Cc1cccc(C)c1OCCNC(=O)C(=O)NCc1ccco1,33.3% (inactive)
15,CC(=O)c1ccc(Oc2cc(C)nc(-n3nc(C)cc3C)n2)cc1,0% (inactive)
16,O=C1CCNc2cc3ccccc3cc21,-66.7% (inactive)
17,CCn1c2ccccc2c2cc(NC(=O)c3cc(OC)c(OC)c(OC)c3)ccc21,-33.3% (inactive)
18,Cc1ccc(CCC(=O)Nc2ncc(Cc3cc(Cl)ccc3Cl)s2)o1,-33.3% (inactive)

# Test system: D54 LucT luciferase counterscreen, luminescence, 24 h
# Test: as above
# Settings: not given
row,Compound,AC40
1,CCCNS(=O)(=O)c1cccc(C(=O)OCc2cc(=O)oc3cc(OC)ccc23)c1,2140 nM
2,O=C(N/N=C/c1ccc(Cl)cc1)c1sccc1OCc1ccc(F)cc1,1600 nM
3,Nc1nc(=S)c2ncn([C@@H]3O[C@H](CO)[C@@H](O)[C@H]3O)c2[nH]1,5190 nM
4,COc1ccccc1-c1nnc(SCc2ccccc2)o1,632 nM
5,COC(=O)c1cn(C(=O)c2ccc(OC)cc2)c2ccccc12,15400 nM
6,Cc1ccc(/C=N/NC(=O)C2COc3ccccc3O2)s1 (stereo unspecified),15300 nM
7,COc1cc(-c2nnc(SCC3(c4ccc(Br)cc4)OCCO3)o2)cc(OC)c1OC,930 nM
8,COc1ccc(-c2nnc(SCc3ccccc3)o2)cc1,5120 nM
9,CCOC(=O)c1ccc(Oc2cc(C)nc(SC)n2)cc1,3390 nM
10,COc1ccccc1CSc1nnc(-c2ccccc2)o1,845 nM
